Results: article PMC3776780, “Dual p38/JNK Mitogen Activated Protein Kinase Inhibitors Prevent Ozone-Induced Airway Hyperreactivity in Guinea Pigs” (PLoS ONE, 2013)

Tests used:
Test in all cases: spectrophotometric coupled-enzyme kinase inhibition assay
Assay type in all cases: biochemical
[1] = biological target: EphA; settings: read-out: Ki or IC50 EphA
Summary of the method: (§1)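 Steps: kinase (10–40 nM) plus inhibitor, 10 min at 30°C in HEPES pH 7.5 buffer containing PEP, NADH, pyruvate kinase, lactate dehydrogenase and EGF receptor peptide (200 µM–500 µM); start with ATP at Km; read 340 nm absorbance loss for 10 min; fit rate versus concentration for IC50 or Ki.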

[2] = biological target: FLT3 (Homo sapiens, UniProt P36888); settings: read-out: Ki or IC50 FLT3
Summary of the method: as §1

[3] = biological target: ITK (Homo sapiens, UniProt Q08881); settings: read-out: Ki or IC50 ITK
Summary of the method: as §1

[4] = biological target: JAK2 (Homo sapiens, UniProt O60674); settings: read-out: Ki or IC50 JAK2
Summary of the method: as §1

[5] = biological target: COT (Homo sapiens, UniProt P41279); settings: read-out: Ki or IC50 COT
Summary of the method: as §1

[6] = biological target: FAK (Homo sapiens, UniProt Q05397); settings: read-out: Ki or IC50 FAK
Summary of the method: as §1

[7] = biological target: LCK (Homo sapiens, UniProt P06239); settings: read-out: Ki or IC50 LCK
Summary of the method: as §1

[8] = biological target: PDK1 (Homo sapiens, UniProt O15530); settings: read-out: Ki or IC50 PDK1
Summary of the method: as §1

Measured: Ki

FLT3, sequence (P36888 27-993, species assumed): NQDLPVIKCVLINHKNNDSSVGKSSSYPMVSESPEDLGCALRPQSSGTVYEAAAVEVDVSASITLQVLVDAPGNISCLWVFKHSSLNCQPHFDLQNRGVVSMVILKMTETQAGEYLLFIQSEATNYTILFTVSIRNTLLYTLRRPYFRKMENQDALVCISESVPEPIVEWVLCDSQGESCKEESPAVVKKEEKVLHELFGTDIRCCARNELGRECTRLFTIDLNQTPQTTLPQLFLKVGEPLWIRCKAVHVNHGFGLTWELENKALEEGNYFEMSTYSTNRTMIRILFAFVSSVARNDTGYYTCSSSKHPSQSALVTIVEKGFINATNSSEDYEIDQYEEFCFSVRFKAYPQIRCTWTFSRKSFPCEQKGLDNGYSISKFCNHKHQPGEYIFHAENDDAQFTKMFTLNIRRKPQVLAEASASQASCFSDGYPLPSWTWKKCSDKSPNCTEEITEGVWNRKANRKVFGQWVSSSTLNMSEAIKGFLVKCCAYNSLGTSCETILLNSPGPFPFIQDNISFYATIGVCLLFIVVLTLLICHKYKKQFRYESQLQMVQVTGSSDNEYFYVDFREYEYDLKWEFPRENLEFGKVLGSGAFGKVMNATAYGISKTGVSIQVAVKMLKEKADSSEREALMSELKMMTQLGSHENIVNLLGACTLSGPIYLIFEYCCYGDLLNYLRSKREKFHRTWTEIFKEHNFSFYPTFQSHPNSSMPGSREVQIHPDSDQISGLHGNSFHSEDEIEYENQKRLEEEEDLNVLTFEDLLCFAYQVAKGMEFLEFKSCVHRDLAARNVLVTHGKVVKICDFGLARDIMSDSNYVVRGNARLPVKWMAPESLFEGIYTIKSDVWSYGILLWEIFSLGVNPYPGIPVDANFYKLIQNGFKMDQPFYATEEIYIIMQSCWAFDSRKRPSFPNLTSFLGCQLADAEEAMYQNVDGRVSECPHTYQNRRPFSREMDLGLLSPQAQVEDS
PDK1, sequence (O15530 whole entry): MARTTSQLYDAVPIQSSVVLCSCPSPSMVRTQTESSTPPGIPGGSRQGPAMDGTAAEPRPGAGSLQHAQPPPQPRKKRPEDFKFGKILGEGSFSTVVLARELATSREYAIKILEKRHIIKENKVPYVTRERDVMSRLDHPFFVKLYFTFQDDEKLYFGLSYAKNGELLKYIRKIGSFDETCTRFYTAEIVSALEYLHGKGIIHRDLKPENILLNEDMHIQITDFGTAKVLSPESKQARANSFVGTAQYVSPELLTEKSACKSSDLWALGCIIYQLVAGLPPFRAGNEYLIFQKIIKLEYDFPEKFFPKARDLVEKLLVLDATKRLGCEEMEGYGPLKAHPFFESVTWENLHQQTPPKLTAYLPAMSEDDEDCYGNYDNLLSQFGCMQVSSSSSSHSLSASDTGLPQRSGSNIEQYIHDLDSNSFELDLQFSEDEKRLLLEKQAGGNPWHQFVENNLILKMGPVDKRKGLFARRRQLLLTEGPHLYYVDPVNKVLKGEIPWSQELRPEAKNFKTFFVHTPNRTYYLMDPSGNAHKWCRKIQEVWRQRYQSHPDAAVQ
LCK, sequence (P06239 whole entry, species assumed): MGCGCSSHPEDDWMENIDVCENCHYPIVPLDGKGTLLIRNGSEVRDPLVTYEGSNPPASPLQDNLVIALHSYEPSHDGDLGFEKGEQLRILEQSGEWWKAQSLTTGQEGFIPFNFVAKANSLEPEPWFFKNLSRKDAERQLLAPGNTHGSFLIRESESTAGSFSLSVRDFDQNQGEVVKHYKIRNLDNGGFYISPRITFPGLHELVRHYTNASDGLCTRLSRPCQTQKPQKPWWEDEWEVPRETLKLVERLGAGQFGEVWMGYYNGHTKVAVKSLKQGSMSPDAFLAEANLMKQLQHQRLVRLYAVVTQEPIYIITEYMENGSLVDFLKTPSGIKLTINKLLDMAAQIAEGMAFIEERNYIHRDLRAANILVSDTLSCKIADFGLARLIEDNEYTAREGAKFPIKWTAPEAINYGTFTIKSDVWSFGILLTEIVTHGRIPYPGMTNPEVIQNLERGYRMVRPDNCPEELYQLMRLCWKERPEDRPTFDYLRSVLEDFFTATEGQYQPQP
JAK2, sequence (O60674 whole entry, species assumed): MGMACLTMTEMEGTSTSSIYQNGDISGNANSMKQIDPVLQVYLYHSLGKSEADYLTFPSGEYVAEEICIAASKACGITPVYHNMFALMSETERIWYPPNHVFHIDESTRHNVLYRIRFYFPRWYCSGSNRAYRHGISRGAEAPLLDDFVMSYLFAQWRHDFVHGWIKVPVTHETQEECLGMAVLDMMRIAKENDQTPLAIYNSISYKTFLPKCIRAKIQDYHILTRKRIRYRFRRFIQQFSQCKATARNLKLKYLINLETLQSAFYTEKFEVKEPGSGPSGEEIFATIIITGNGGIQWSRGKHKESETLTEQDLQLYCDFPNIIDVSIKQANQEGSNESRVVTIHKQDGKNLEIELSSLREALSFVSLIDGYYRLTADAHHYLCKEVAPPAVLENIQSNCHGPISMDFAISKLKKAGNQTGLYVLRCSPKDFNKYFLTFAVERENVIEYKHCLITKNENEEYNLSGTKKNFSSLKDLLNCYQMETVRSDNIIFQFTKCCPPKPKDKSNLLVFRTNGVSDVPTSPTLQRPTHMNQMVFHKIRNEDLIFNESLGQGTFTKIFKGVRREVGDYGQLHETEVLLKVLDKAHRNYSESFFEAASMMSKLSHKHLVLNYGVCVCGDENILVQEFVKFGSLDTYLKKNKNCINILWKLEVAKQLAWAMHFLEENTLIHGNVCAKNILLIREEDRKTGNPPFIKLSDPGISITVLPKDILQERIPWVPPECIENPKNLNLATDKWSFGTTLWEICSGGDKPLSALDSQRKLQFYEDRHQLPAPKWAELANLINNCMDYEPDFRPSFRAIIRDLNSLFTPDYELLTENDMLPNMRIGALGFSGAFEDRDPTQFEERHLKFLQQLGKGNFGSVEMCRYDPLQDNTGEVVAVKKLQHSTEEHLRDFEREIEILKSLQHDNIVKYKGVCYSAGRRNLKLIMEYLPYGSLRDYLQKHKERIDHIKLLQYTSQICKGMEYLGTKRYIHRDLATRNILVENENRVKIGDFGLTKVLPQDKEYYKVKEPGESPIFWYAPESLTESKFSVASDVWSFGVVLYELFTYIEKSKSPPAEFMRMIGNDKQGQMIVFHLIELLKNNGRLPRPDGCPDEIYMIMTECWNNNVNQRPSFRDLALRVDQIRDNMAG
COT, sequence (P41279 whole entry): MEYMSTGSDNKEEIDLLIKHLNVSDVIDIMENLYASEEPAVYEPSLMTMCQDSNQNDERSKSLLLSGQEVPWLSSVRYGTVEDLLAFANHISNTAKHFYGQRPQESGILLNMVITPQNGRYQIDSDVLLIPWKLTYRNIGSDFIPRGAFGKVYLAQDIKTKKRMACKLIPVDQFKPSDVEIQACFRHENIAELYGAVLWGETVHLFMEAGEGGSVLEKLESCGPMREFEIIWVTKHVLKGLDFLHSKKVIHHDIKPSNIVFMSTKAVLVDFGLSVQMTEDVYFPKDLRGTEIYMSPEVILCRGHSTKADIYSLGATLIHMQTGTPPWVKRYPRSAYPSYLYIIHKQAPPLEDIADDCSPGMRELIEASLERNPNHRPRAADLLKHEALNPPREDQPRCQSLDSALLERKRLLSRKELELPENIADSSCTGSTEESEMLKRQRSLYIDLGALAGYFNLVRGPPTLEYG
ITK, sequence (Q08881 whole entry, species assumed): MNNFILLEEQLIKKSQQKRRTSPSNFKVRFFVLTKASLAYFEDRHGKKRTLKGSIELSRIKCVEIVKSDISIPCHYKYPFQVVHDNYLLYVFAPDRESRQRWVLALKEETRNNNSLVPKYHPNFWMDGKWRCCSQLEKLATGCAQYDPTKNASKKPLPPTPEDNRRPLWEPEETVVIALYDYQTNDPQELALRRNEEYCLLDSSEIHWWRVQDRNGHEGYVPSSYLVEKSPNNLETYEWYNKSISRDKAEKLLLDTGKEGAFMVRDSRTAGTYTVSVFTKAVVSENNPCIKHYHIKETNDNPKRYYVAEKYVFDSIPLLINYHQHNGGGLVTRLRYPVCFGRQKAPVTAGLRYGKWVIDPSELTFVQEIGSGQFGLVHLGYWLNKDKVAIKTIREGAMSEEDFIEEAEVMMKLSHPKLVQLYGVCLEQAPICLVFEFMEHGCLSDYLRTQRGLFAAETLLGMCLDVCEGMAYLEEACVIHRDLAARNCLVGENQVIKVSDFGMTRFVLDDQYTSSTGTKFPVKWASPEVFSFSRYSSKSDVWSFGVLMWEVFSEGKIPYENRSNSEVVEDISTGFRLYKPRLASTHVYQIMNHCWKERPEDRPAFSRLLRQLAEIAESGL

OC1CCN(Cc2onc(-c3ccc(F)cc3)c2-c2ccnc(NC3CCCCC3)n2)CC1 [V-05-013]
> 1 µM: [1] | [2] | [3] | [4]

OC[C@@H]1CCCN1Cc1onc(-c2ccc(F)cc2)c1-c1ccnc(NC2CCCCC2)n1 [V-05-014]
> 1 µM: [5] | [1] | [6] | [7] | [8]

Fc1ccc(-c2noc(CN3CCCCC3)c2-c2ccnc(NC3CCCCC3)n2)cc1 [V-05-015]
> 1 µM: [2] | [4] | [7] | [8]
